The subject of data set [1] is striatal tissue after malonate injections. The data set is described as follows: salicylate hydroxyl radical trapping and 3-nitrotyrosine in striatum after intrastriatal malonate injection. Type of data set: in vivo. The note with it: 1% in diet for two weeks before intrastriatal malonate, FIG. 3. From the text: FIG. 3 depicts the production of 2,3 and 2,5 DHBA and 3 nitrotyrosine after intrastriatal injection of malonate in control animals fed with creatine and those fed with cyclocreatine. **p is less than 0.01 compared with uninjected side; #p is less than 0.05 compared with DHBA elevation in controls. Eight animals were used in each group.
The salicylate hydroxyl radical-trapping method was used for measuring levels of hydroxyl radicals in striatal tissue after malonate injections. Eight animals in each group were fed either a normal diet or a diet enriched with 1% creatine or 1% cyclocreatine for two weeks before intrastriatal malonate injections. Animals were injected with 200 mg/kg salicylate intraperitoneally just before the malonate injections and were killed 1 hour later. […] An aliquot of supernatant was analyzed by HPLC with the 16-electrode electrochemical detection (Beal et. al., 1990). Salicylate, 2,3 and 2,5 DHBA, tyrosine, 3-nitrotyrosine were measured electrochemically by oxidation at 840, 240, 120, 600 and 840 mV respectively with retention times of 20.5, 9.4, 6.3, 10.5, 18.2 min respectively. The data were expressed as the ratio of 2,3 and 2,5 DHBA to salicylate to normalize the DHBA concentrations for differing brain concentrations of salicylate. […] 3-Nitrotyrosine and tyrosine concentrations were measured by HPLC with electrochemical detection (Matthews 1998). […]

For another data set, the system named is mice, rats and chicks. The note with it: fed to mice; cited from earlier work.
The next data set has as its system chicks. The note with it: 1% cyclocreatine in diet, newly hatched chicks, cited from earlier work.
A further data set deals with mice. The note with it: up to 1% of diet for 2 weeks or over 4 weeks; cited from earlier work.
For data set [2] the following is noted: cited from earlier work.
The conditions of data set [3]: 1% dietary cyclocreatine; cited from earlier work.
In the next data set the test system is creatine kinase. Conditions: forward reaction, in vitro and in vivo; cited from earlier work.
For data set [4], the system named is patients with cardiac diseases. Conditions: up to 8 grams/day, intravenous injection; cited from earlier work.

With `NC1=NCCN1CC(=O)O` [cyclocreatine, 1-carboxymethyl-2-iminoimidazolidine], in data set [1], the “nitration of proteins (3-nitrotyrosine) induced by malonate” value is on record as “protective effects”. In data set [1] (killed 1 hour later), the “levels of salicylate derivatives 2,3 DHBA and 2,5 DHBA after malonate” value was “protect against increases”. Moreover, the tolerability entry in the data set with mice, rats and chicks is given as “well-tolerated”. In the data set with chicks (in the presence of antibiotics), the mortality entry is on record as “without significant mortality”. Further, in the data set on chicks, the “growth compared with control chicks” value is on record as “grew more slowly”. For the same compound, the gross adverse effects entry in the data set with mice is “without gross adverse effects”. Also, in data set [2] (animals fed e.g. 1% dietary cyclocreatine, mM concentrations), the “accumulation in different organs” value is “accumulation of cyclocreatine in different organs in mM concentrations”. The “uptake by muscle, heart and brain” value in data set [2] (rats receiving dietary 1% cyclocreatine) is “taken up by muscle, heart and brain”. Moreover, the antiviral activity result in data set [3] was “observed”. In addition, in the data set on creatine kinase, the “phosphorylation by creatine kinase” value is “phosphorylated efficiently”.

Consider “N-phosphoryl creatine [creatine phosphate]”, for which the adverse side effects entry in data set [4] is “no adverse side effects”.

The record behind these values is US7186754B2, “Use of creatine or creatine compounds for skin preservation” (Avicena Group, Inc., priority 1999, dated 2007).
